Laboratory results reported in US20110262567A1, “COMPOSITION FOR TREATING GOUT, CONTAINING ANGELICA GIGAS EXTRACT HAVING A XANTHINE OXIDASE-INHIBITING EFFECT AND AN INFLAMMATION-INDUCING ENZYME-INHIBITING EFFECT” (KOREA BIO HEALTH CO., LTD., priority 2008, published 2011).
Converted amounts (≈) assume the structure as drawn.

What was measured:
xanthine oxidase = xanthine oxidase (Homo sapiens, UniProt P47989); experiment: Test on xanthine oxidase inhibition; format: biochemical
Protocol: In this experiment, xanthine was used as a substrate and xanthine oxidase was used as an enzyme to perform an enzyme-substrate reaction.
250 μl of 50 mM potassium phosphate buffer (pH 7.5), 385 μl of Angelica gigas Nakai extract solution (prepared by dilution with 50 mM potassium phosphate buffer (pH 7.5) until the final concentrations of decursin and decursinol angelate become 1, 5, 10, 17.5, 20, 50 μg/ml), and 330 μl of xanthine solution were mixed with each other to prepare a reaction solution.
35 μl of xanthine oxidase solution (final concentration of 0.4 U/ml) was added to the reaction solution, and reacted in a 37° C. incubator for 15 min. Then, absorbance (Ab) was measured at 295 nm.
Each reaction solution was also prepared using each Angelica gigas Nakai extract (each final concentration of decursin and decursinol angelate was 1, 5, 10, 17.5, 20, or 50 μg/ml) without addition of the xanthine oxidase solution. Further, in the absence of the Angelica gigas Nakai extract, each reaction solution was prepared with or without the xanthine oxidase solution. […]
A: a change in absorbance in the absence of composition (Absorbance with enzyme−Absorbance without enzyme)
B: a change in absorbance in the presence of composition (Absorbance with enzyme−Absorbance without enzyme)

Cox-2 = experiment: Inflammation inhibition in hepatocytes of gout-induced animal model (Cox-2 western blot of liver); format: in vivo; conditions: rat, 50 mg/kg oral for 3 days after potassium oxonate; compared to hyperuricemia control group (model control)
Protocol: In order to confirm the inhibitory effect of the Angelica gigas Nakai extract of the present invention on the inflammation-inducing enzyme Cox-2, the uricase inhibitor, potassium oxonate was administered to induce hyperuricemia.
As the experimental animal, 9-week old male sprague-dawley rats (250-280 g, Samtako, Inc.) were acclimated in a SPF chamber where the humidity and temperature were maintained at 50±5% and 24˜26° C. and feed and water were supplied ad libitum for 1 week, and then used for the experiment.
In the present experiment, the uricase inhibitor, potassium oxonate (150 mg/kg) was intraperitoneally administered one day before sample treatment, so as to induce hyperuricemia. The contents of uric acid before and after administration of potassium oxonate were measured and compared to each other, in order to confirm the hyperuricemia induction by administration of potassium oxonate.
Potassium oxonate was suspended in 0.5% sodium carboxymethylcellulose (CMC-Na, 0.5% CMC with 0.1 M sodium acetate (pH5)), and used. […]
After oral administration for 3 days, the experimental animals were fasted overnight, and then anesthetized with dry ice. […] 100 mg was dissected from the whole liver, and proteins were separated using a cell lysis buffer, and the protein concentration was measured by BCA protein assay. […]

Chain of xanthine oxidase (P47989 whole entry, species assumed): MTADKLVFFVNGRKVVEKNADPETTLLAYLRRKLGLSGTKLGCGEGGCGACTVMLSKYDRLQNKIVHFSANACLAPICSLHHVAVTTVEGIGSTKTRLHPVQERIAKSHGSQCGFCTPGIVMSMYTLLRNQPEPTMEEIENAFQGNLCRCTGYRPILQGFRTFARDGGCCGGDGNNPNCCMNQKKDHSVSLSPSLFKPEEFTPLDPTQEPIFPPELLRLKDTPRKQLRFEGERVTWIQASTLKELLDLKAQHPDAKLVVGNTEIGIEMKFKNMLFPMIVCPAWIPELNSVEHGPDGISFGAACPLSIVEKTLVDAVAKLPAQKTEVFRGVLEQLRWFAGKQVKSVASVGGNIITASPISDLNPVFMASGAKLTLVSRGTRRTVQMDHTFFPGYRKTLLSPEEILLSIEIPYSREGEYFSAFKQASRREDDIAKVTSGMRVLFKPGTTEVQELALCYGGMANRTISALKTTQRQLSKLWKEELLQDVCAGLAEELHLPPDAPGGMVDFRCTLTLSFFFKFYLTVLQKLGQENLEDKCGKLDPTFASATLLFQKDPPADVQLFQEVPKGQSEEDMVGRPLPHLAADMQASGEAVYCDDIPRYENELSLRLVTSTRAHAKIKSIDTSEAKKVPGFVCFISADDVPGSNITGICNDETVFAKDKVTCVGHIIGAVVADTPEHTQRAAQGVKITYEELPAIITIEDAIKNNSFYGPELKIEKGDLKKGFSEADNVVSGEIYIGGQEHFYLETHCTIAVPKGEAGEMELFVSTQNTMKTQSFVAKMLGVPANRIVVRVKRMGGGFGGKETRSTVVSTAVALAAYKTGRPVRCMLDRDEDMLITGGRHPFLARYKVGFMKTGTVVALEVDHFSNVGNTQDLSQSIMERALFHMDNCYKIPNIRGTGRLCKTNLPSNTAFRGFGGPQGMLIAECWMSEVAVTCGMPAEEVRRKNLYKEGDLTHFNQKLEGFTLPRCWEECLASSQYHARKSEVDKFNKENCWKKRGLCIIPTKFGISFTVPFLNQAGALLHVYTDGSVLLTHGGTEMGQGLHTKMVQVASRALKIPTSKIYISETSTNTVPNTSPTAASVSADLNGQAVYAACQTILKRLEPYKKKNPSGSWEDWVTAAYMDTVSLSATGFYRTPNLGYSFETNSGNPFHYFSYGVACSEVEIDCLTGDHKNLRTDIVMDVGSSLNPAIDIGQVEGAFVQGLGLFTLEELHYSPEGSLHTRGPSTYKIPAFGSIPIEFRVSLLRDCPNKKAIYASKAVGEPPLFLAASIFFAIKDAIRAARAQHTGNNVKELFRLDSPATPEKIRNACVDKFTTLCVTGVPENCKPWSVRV

## Oc1ncnc2[nH]ncc12 [allopurinol]
Xanthine oxidase
  IC90: 38 µg/mL (≈ 279 µM)
Cox-2
  Cox-2 expression in the hepatic tissue: adversely increased
